Experimental data published in ChEMBL document CHEMBL4339253, “Anthraquinone-Based Specialized Metabolites from Rhizomes of Bulbine natalensis” (J Nat Prod, 2019).
The source made the active and inactive calls. The calls are words filed in the database; no cut-off is given here.

How the values were obtained:
Format in all cases: functional, organism-based
Pseudomonas aeruginosa [1] = assay: Antimicrobial activity against Pseudomonas aeruginosa ATCC 27853 assessed as inhibition of microbial growth up to 20 ug/mL by CLSI based method
Candida albicans [2] = assay: Antimicrobial activity against Candida albicans ATCC 90028 assessed as inhibition of microbial growth up to 20 ug/mL by CLSI based method
[3] = tested on: Mycobacterium intracellulare; assay: Antimicrobial activity against Mycobacterium intracellulare assessed as inhibition of microbial growth up to 20 ug/mL
Escherichia coli [4] = assay: Antimicrobial activity against Escherichia coli ATCC 35218 assessed as inhibition of microbial growth up to 20 ug/mL by CLSI based method
Aspergillus fumigatus [5] = assay: Antimicrobial activity against Aspergillus fumigatus ATCC 90906 assessed as inhibition of microbial growth up to 20 ug/mL by CLSI based method
Cryptococcus neoformans [6] = assay: Antimicrobial activity against Cryptococcus neoformans ATCC 90113 assessed as inhibition of microbial growth up to 20 ug/mL by CLSI based method
Staphylococcus aureus [7] = assay: Antimicrobial activity against methicillin-resistant Staphylococcus aureus ATCC 43300 assessed as inhibition of microbial growth up to 20 ug/mL by CLSI based method
Cryptococcus neoformans [8] = assay: Antimicrobial activity against Cryptococcus neoformans ATCC 90113 assessed as inhibition of microbial growth by CLSI based method
Aspergillus fumigatus [9] = assay: Antimicrobial activity against Aspergillus fumigatus ATCC 90906 assessed as inhibition of microbial growth by CLSI based method
Escherichia coli [10] = assay: Antimicrobial activity against Escherichia coli ATCC 35218 assessed as inhibition of microbial growth by CLSI based method
Staphylococcus aureus [11] = assay: Antimicrobial activity against methicillin-resistant Staphylococcus aureus ATCC 43300 assessed as inhibition of microbial growth by CLSI based method
Pseudomonas aeruginosa [12] = assay: Antimicrobial activity against Pseudomonas aeruginosa ATCC 27853 assessed as inhibition of microbial growth by CLSI based method
Candida albicans [13] = assay: Antimicrobial activity against Candida albicans ATCC 90028 assessed as inhibition of microbial growth by CLSI based method

SMILES: CC1=CC(O)=C2C(=O)c3c(O[C@@H]4O[C@H](CO)[C@@H](O)[C@H](O)[C@H]4O)cccc3C(c3ccc4c(c3O)C(=O)c3c(O)cc(C)cc3C4(O)[C@@H]3O[C@@H](C)[C@H](O)[C@@H](O)[C@H]3O)=C2C1=O (some centres undefined)
- growth inhibition (GI) (Pseudomonas aeruginosa [1]): inactive
- growth inhibition (GI) (Candida albicans [2]): inactive
- growth inhibition (GI) [3]: inactive
- growth inhibition (GI) (Escherichia coli [4]): inactive
- growth inhibition (GI) (Aspergillus fumigatus [5]): inactive
- growth inhibition (GI) (Cryptococcus neoformans [6]): inactive
- growth inhibition (GI) (Staphylococcus aureus [7]): inactive

SMILES: OC(Cn1cncn1)(Cn1cncn1)c1ccc(F)cc1F [FLUCONAZOLE]
- IC50 (Cryptococcus neoformans [8]): 5 µM
- IC50 (Aspergillus fumigatus [9]): > 300 µM
- IC50 (Escherichia coli [10]): > 0.3 µM
- IC50 (Staphylococcus aureus [11]): > 300 µM
- IC50 (Pseudomonas aeruginosa [12]): > 0.3 µM

SMILES: COc1cccc2cc3c(c(O)c12)[C@@H](C)OC3
- growth inhibition (GI) (Pseudomonas aeruginosa [1]): inactive
- growth inhibition (GI) (Candida albicans [2]): inactive
- growth inhibition (GI) [3]: inactive
- growth inhibition (GI) (Escherichia coli [4]): inactive
- growth inhibition (GI) (Aspergillus fumigatus [5]): inactive
- growth inhibition (GI) (Cryptococcus neoformans [6]): inactive
- growth inhibition (GI) (Staphylococcus aureus [7]): inactive

SMILES: COc1cc(OC)c(C2=C3C(=O)C(C)=CC(O)=C3C(=O)c3c(O)cccc32)c(O)c1C(C)=O
- growth inhibition (GI) (Pseudomonas aeruginosa [1]): inactive
- growth inhibition (GI) (Candida albicans [2]): inactive
- growth inhibition (GI) [3]: inactive
- growth inhibition (GI) (Escherichia coli [4]): inactive
- growth inhibition (GI) (Aspergillus fumigatus [5]): inactive
- growth inhibition (GI) (Cryptococcus neoformans [6]): inactive
- growth inhibition (GI) (Staphylococcus aureus [7]): inactive

SMILES: CO/N=C(\C(=O)N[C@@H]1C(=O)N2C(C(=O)O)=C(COC(C)=O)CS[C@H]12)c1csc(N)n1 [CEFOTAXIME]
- IC50 (Cryptococcus neoformans [8]): > 200 µM
- IC50 (Aspergillus fumigatus [9]): > 200 µM
- IC50 (Candida albicans [13]): > 200 µM
- IC50 (Escherichia coli [10]): 0.1 µM
- IC50 (Staphylococcus aureus [11]): 30 µM
- IC50 (Pseudomonas aeruginosa [12]): 0.03 µM

SMILES: COc1cccc(OC)c1C(=O)N[C@@H]1C(=O)N2[C@@H]1SC(C)(C)[C@@H]2C(=O)O [METHICILLIN]
- IC50 (Cryptococcus neoformans [8]): > 300 µM
- IC50 (Aspergillus fumigatus [9]): > 300 µM
- IC50 (Candida albicans [13]): > 300 µM
- IC50 (Staphylococcus aureus [11]): 30 µM
- IC50 (Pseudomonas aeruginosa [12]): 0.3 µM

SMILES: Cc1cc(O)c2c(c1)C(O)([C@@H]1O[C@@H](C)[C@H](O)[C@@H](O)[C@H]1O)c1ccc([C@H]3c4cccc(O)c4C(=O)c4c(O)cc(C)c(O[C@@H]5OC[C@@H](O)[C@H](O)[C@H]5O)c43)c(O)c1C2=O (some centres undefined)
- growth inhibition (GI) (Pseudomonas aeruginosa [1]): inactive
- growth inhibition (GI) (Candida albicans [2]): inactive
- growth inhibition (GI) [3]: inactive
- growth inhibition (GI) (Escherichia coli [4]): inactive
- growth inhibition (GI) (Aspergillus fumigatus [5]): inactive
- growth inhibition (GI) (Cryptococcus neoformans [6]): inactive
- growth inhibition (GI) (Staphylococcus aureus [7]): inactive

SMILES: Cc1cc(O)c2c(c1)C(O)([C@@H]1O[C@@H](C)[C@H](O)[C@@H](O)[C@H]1O)c1ccc([C@H]3c4cccc(O)c4C(=O)c4c(O)cc(C)c(O)c43)c(O)c1C2=O (some centres undefined)
- IC50 (Cryptococcus neoformans [8]): > 30 µM
- IC50 (Aspergillus fumigatus [9]): > 30 µM
- IC50 (Candida albicans [13]): > 30 µM
- IC50 (Staphylococcus aureus [11]): 20 µM

SMILES: C[C@@H](O)[C@H]1C(=O)N2C(C(=O)O)=C(S[C@@H]3CN[C@H](C(=O)N(C)C)C3)[C@H](C)[C@H]12 [MEROPENEM]
- IC50 (Cryptococcus neoformans [8]): > 300 µM
- IC50 (Aspergillus fumigatus [9]): > 300 µM
- IC50 (Candida albicans [13]): > 300 µM
- IC50 (Escherichia coli [10]): 0.01 µM
- IC50 (Staphylococcus aureus [11]): 10 µM
- IC50 (Pseudomonas aeruginosa [12]): 0.02 µM

SMILES: COc1cc(O)c2c(c1)C(=O)c1cc(O[C@@H]3O[C@H](CO)[C@@H](O)[C@H](O)[C@H]3O)c(C(=O)O)c(C)c1C2=O
- growth inhibition (GI) (Pseudomonas aeruginosa [1]): inactive
- growth inhibition (GI) (Candida albicans [2]): inactive
- growth inhibition (GI) [3]: inactive
- growth inhibition (GI) (Escherichia coli [4]): inactive
- growth inhibition (GI) (Aspergillus fumigatus [5]): inactive
- growth inhibition (GI) (Cryptococcus neoformans [6]): inactive
- growth inhibition (GI) (Staphylococcus aureus [7]): inactive

SMILES: CN[C@H](CC(C)C)C(=O)N[C@H]1C(=O)N[C@@H](CC(N)=O)C(=O)N[C@H]2C(=O)N[C@H]3C(=O)N[C@H](C(=O)N[C@H](C(=O)O)c4cc(O)cc(O)c4-c4cc3ccc4O)[C@H](O)c3ccc(c(Cl)c3)Oc3cc2cc(c3O[C@@H]2O[C@H](CO)[C@@H](O)[C@H](O)[C@H]2O[C@H]2C[C@](C)(N)[C@H](O)[C@H](C)O2)Oc2ccc(cc2Cl)[C@H]1O [VANCOMYCIN]
- IC50 (Cryptococcus neoformans [8]): > 70 µM
- IC50 (Aspergillus fumigatus [9]): > 70 µM
- IC50 (Candida albicans [13]): > 70 µM
- IC50 (Escherichia coli [10]): 0.04 µM
- IC50 (Staphylococcus aureus [11]): 0.4 µM
- IC50 (Pseudomonas aeruginosa [12]): > 0.07 µM

SMILES: COc1cc(OC)c(C2=C(C)C=C(O)C3C(=O)c4c(O)cccc4C(=O)C23)c(O)c1C(C)=O (centres undefined)
- growth inhibition (GI) (Pseudomonas aeruginosa [1]): inactive
- growth inhibition (GI) (Candida albicans [2]): inactive
- growth inhibition (GI) [3]: inactive
- growth inhibition (GI) (Escherichia coli [4]): inactive
- growth inhibition (GI) (Aspergillus fumigatus [5]): inactive
- growth inhibition (GI) (Cryptococcus neoformans [6]): inactive
- growth inhibition (GI) (Staphylococcus aureus [7]): inactive

SMILES: C[C@@H]1[C@H](O)[C@@H](C)/C=C/C=C/C=C/C=C/C=C/C=C/C=C/[C@H](O[C@@H]2O[C@H](C)[C@@H](O)[C@H](N)[C@@H]2O)C[C@@H]2O[C@](O)(C[C@@H](O)C[C@@H](O)[C@H](O)CC[C@@H](O)C[C@@H](O)CC(=O)O[C@H]1C)C[C@H](O)[C@H]2C(=O)O [AMPHOTERICIN B]
- IC50 (Cryptococcus neoformans [8]): 0.2 µM
- IC50 (Aspergillus fumigatus [9]): 1 µM
- IC50 (Candida albicans [13]): < 0.1 µM
- IC50 (Staphylococcus aureus [11]): > 100 µM

SMILES: COc1cc(OC)c(C2=C(C)C=C(O)C3C(=O)c4c(O[C@@H]5O[C@H](CO[C@@H]6O[C@H](CO)[C@@H](O)[C@H](O)[C@H]6O)[C@@H](O)[C@H](O)[C@H]5O)cccc4C(=O)C23)c(O)c1C(C)=O (some centres undefined)
- growth inhibition (GI) (Pseudomonas aeruginosa [1]): inactive
- growth inhibition (GI) (Candida albicans [2]): inactive
- growth inhibition (GI) [3]: inactive
- growth inhibition (GI) (Escherichia coli [4]): inactive
- growth inhibition (GI) (Aspergillus fumigatus [5]): inactive
- growth inhibition (GI) (Cryptococcus neoformans [6]): inactive
- growth inhibition (GI) (Staphylococcus aureus [7]): inactive

SMILES: CC1=CC(O)=C2C(=O)c3c(O)cccc3C(c3ccc4c(c3O)C(=O)c3c(O)cc(C)cc3C4=O)=C2C1=O
- growth inhibition (GI) (Pseudomonas aeruginosa [1]): inactive
- growth inhibition (GI) (Candida albicans [2]): inactive
- growth inhibition (GI) [3]: inactive
- growth inhibition (GI) (Escherichia coli [4]): inactive
- growth inhibition (GI) (Aspergillus fumigatus [5]): inactive
- growth inhibition (GI) (Cryptococcus neoformans [6]): inactive
- growth inhibition (GI) (Staphylococcus aureus [7]): inactive

SMILES: COc1cc(O)c(C(C)=O)c(O)c1C1=C(C)C=C(O)C2C(=O)c3c(O)cccc3C(=O)C12 (centres undefined)
- growth inhibition (GI) (Pseudomonas aeruginosa [1]): inactive
- growth inhibition (GI) (Candida albicans [2]): inactive
- growth inhibition (GI) [3]: inactive
- growth inhibition (GI) (Escherichia coli [4]): inactive
- growth inhibition (GI) (Aspergillus fumigatus [5]): inactive
- growth inhibition (GI) (Cryptococcus neoformans [6]): inactive
- growth inhibition (GI) (Staphylococcus aureus [7]): inactive
